Measured values taken from paper PMC8072719, “Synthesis and Antiproliferative Activity of Triazoles Based on 2-Azabicycloalkanes” (Materials, 2021).
Like-named read-outs stand apart in the source and are kept apart here.

Assays:
Hs294T = assay: Growth inhibition assay (SRB assay), melanoma cell line Hs294T; type: cell-based, human; conditions: Homo sapiens, Hs 294T, 72 h, mean ± SD
Procedure: (§1) Three human cancer cell lines were used to evaluate the antiproliferative activity of the obtained compounds: melanoma cell line Hs294T, pancreatic tumor cell line MIA PaCa-2, and lung tumor cell line NCI-H1581. The normal mouse fibroblasts cell line (BALB/3T3 clone A31) was selected as reference. All these lines were purchased from the ATCC (American Type Culture Collection, Rockville, MD, USA). NCI-H1581 cells were grown in RPMI 1640 with GlutaMax medium (Gibco, Thermo Fisher Scientific, Leicestershire, UK) with 5% fetal bovine serum (FBS; HyClone, GE Healthcare, Logan, UT, USA). Hs294T and BALB/3T3 cells were grown in Dulbecco’s Modified Eagle Medium (DMEM; Gibco, Thermo Fisher Scientific, Leicestershire, UK) supplemented with 2 mM L-glutamine and 10% FBS (HyClone, GE Healthcare, Logan, UT, USA). MIA PaCa-2 cells were grown in DMEM (Gibco, Thermo Fisher Scientific, Leicestershire, UK) supplemented with 2 mM L-glutamine, 2.5% Horse Serum (Gibco, Thermo Fisher Scientific, Leicestershire, UK), and 10% FBS (HyClone, GE Healthcare, Logan, UT, USA). All culture media were supplemented with antibiotics: 100 U/mL penicillin (Polfa Tarchomin SA, Warsaw, Poland) and 100 µg/mL streptomycin (Sigma-Aldrich Chemie GmbH, Steinheim, Germany); cells were grown at 37 °C in a humid atmosphere with 5% CO2.
(§2) Twenty-four hours prior to the addition of the tested compounds, 2000 cells per well of Balb/3T3, MIA PaCa-2, and Hs294T cell lines and 2500 cells of NCI-H1581 cell line were seeded in 384-well plates (Greiner Bio-One, Kremsmünster, Austria) in an appropriate medium. The studied compounds were added to the cells at 8 different concentrations in a series of dilutions from 100 to 0.00001 µg/mL for 72 h. Cisplatin was applied as a reference compound (Teva Pharmaceuticals, Warsaw, Poland). DMSO (Sigma-Aldrich Chemie GmbH, Steinheim, Germany) was used as solvent control. The DMSO concentrations corresponded to the solvent concentrations in the tested compound solutions. Then, 30 µL per well of ice-cold 50% TCA (trichloroacetic acid, Avantor, Gliwice, Poland) was added to the cells. After one hour of incubation at room temperature (RT) cells were washed five times with water and stained with 0.4% SRB (sulforhodamine B, Sigma-Aldrich Chemie GmbH, Steinheim, Germany). Twenty-five microliters per well of 0.4% solution of SRB in 1% acetic acid (Avantor, Gliwice, Poland) was applied. After 0.5 h of incubation at RT, the unbound dye was washed out with 1% acetic acid. The bound dye in each well was dissolved in 70 µl of 10 mM TRIS (Tris base, Sigma-Aldrich, Chemie GmbH, Steinheim, Germany). A microplate reader (BioTek Synergy H4, Swindon, UK) with Gen5 software was used to read the absorbance at 540 nm. The results are presented as mean IC50 values (concentration of the compound that inhibits cell proliferation by 50%) ± standard deviation. Half-maximal inhibitory concentration (IC50) values were calculated using the Prolab-3 system based on Cheburator 0.4 [22]. Each experiment was performed in triplicate, and three independent repetitions were made for each experiment. Raw data and IC50 values were placed in the supplementary materials.

MIA PaCa-2 = assay: Growth inhibition assay (SRB assay), pancreatic tumor cell line MIA PaCa-2; type: cell-based, human; conditions: Homo sapiens, mean ± SD
Procedure: as §1, §2

NCI-H1581 = assay: Growth inhibition assay (SRB assay), lung tumor cell line NCI-H1581; type: cell-based, human; conditions: for IC50: 72 h, SRB, mean ± SD; for SI (Selectivity Index): SI = IC50 for normal cell line BALB/3T3 / IC50 for NCI-H1581
Procedure: as §1, §2

BALB/3T3 clone A31 = assay: Growth inhibition assay (SRB assay), normal fibroblasts BALB/3T3 clone A31; type: cell-based, mouse; conditions: mean ± SD
Procedure: as §1, §2

[1] = Solvability in DMSO (table footnote); type: physicochemical; parameters: key to solvability in dimethyl sulfoxide (DMSO): **: poor or no solvability in dimethyl sulfoxide (DMSO); key to solvability in DMSO: [b]: poor or no solvability in DMSO; conditions: for solvability in DMSO: supplement
[2] = supplement, read-out: IC50 Hs294T (raw data)
[3] = MIA PaCa-2, 72 h, read-out: IC50 MIA PaCa-2
[4] = MIA PaCa-2, supplement, 72 h, read-out: IC50 MIA PaCa-2 (raw data)
[5] = Homo sapiens, NCI-H1581, 72 h, read-out: IC50 NCI-H1581
[6] = Homo sapiens, NCI-H1581, 72 h, supplement, read-out: IC50 NCI-H1581 (raw data)
[7] = 72 h, normal cell line, read-out: IC50 BALB3T3
[8] = Mus musculus, BALB/3T3 clone A31, 72 h, normal cell line, read-out: IC50 BALB3T3
[9] = Mus musculus, BALB/3T3 clone A31, 72 h, supplement, read-out: IC50 BALB3T3 (raw data)
[10] = MIA PaCa-2, supplement, 72 h, read-out: IC50 MIA PaCa-2 (non-rounded data)
[11] = Mus musculus, BALB/3T3 clone A31, 72 h, supplement, read-out: IC50 BALB3T3 (non-rounded data)
[12] = supplement, read-out: IC50 Hs294T (non-rounded data)

SMILES	IC50 (Hs294T; read-out: IC50 Hs294T) [µM]	IC50 (Hs294T; [2])	IC50 (MIA PaCa-2; [3]) [µM]	IC50 (MIA PaCa-2; [4])	IC50 (NCI-H1581; [5]) [µM]	IC50 (NCI-H1581; [6])	solvability in dimethyl sulfoxide (DMSO) [1]	solvability in DMSO [1]	IC50 (MIA PaCa-2; [10]) [µM]	IC50 (Hs294T; [12]) [µM]	IC50 (NCI-H1581; Homo sapiens, NCI-H1581, 72 h, supplement, read-out: IC50 NCI-H1581 (non-rounded data)) [µM]	IC50 (NCI-H1581; read-out: IC50 NCI-H1581) [µM]	SI (Selectivity Index) (NCI-H1581)	IC50 (BALB/3T3 clone A31; [7]) [µM]	IC50 (BALB/3T3 clone A31; [8]) [µM]	IC50 (BALB/3T3 clone A31; [9])	IC50 (BALB/3T3 clone A31; [11]) [µM]
C[C@@H](c1ccccc1)N1C[C@H](n2cc(CCCc3cn([C@H]4CN([C@@H](C)c5ccccc5)[C@H]5CC[C@@H]4C5)nn3)nn2)[C@@H]2CC[C@H]1C2 [Compound 11, 1,3-Bis-(1-((1S,4R,5R)-2-((S)-1-phenylethyl)-2-azabicyclo[3.2.1]octan-4-yl)-1H-1,2,3-triazol-4-yl) propane]	9.71 ± 3.08	5.87 ± 1.86 µg/mL	37.6 ± 5.51	22.7 ± 3.33 µg/mL	4.4 ± 0.61	2.66 ± 0.37 µg/mL	11 **	[b]					6	26.7 ± 4.76	26.7	16.2 ± 2.88 µg/mL	
C[C@@H](c1ccccc1)N1C[C@@H](n2cc(-c3cccc(-c4cn([C@@H]5CN([C@@H](C)c6ccccc6)[C@H]6CC[C@@H]5C6)nn4)c3)nn2)[C@@H]2CC[C@H]1C2 [Compound 16, 1,3-Bis-(1-((1S,4S,5R)-2-((S)-1-phenylethyl)-2-azabicyclo[3.2.1]octan-4-yl)-1H-1,2,3-triazol-4-yl) benzene]	> 100	> 100 µM	> 100	> 100 µM	53.9 ± 5.07	34.5 ± 3.24 µg/mL	16 **	[b]	> 100	> 100					> 100	> 100 µM	> 100
C[C@@H](c1ccccc1)N1C[C@H](n2cc(-c3cccc(-c4cn([C@H]5CN([C@@H](C)c6ccccc6)[C@H]6CC[C@@H]5C6)nn4)c3)nn2)[C@@H]2CC[C@H]1C2 [Compound 17, 1,3-Bis-(1-((1S,4R,5R)-2-((S)-1-phenylethyl)-2-azabicyclo[3.2.1]octan-4-yl)-1H-1,2,3-triazol-4-yl) benzene]	> 100	> 100 µM	> 100	> 100 µM	> 100	> 100 µM			> 100	> 100	> 100				> 100	> 100 µM	> 100
C[C@@H](c1ccccc1)N1C[C@@H](n2cc(CN(Cc3cn([C@@H]4CN([C@@H](C)c5ccccc5)[C@H]5CC[C@@H]4C5)nn3)Cc3cn([C@@H]4CN([C@@H](C)c5ccccc5)[C@H]5CC[C@@H]4C5)nn3)nn2)[C@@H]2CC[C@H]1C2 [Compound 18, N,N,N-tri((1-((1S,4S,5R)-2-((S)-1-phenylethyl)-2-azabicyclo[3.2.1]octan-4-yl)-1H-1,2,3-triazol-4-yl)methyl) amine]	20.8 ± 5.02	18.8 ± 4.52 µg/mL	25.7 ± 0.26	23.11 ± 0.23 µg/mL	2.4	2.2 ± 0.06 µg/mL						2.44 ± 0.07			23.1 ± 2.72	20.8 ± 2.45 µg/mL	
C[C@@H](c1ccccc1)N1C[C@H](n2cc(CN(Cc3cn([C@H]4CN([C@@H](C)c5ccccc5)[C@H]5CC[C@@H]4C5)nn3)Cc3cn([C@H]4CN([C@@H](C)c5ccccc5)[C@H]5CC[C@@H]4C5)nn3)nn2)[C@@H]2CC[C@H]1C2 [Compound 19, N,N,N-tris((1-((1S,4R,5R)-2-((S)-1-phenylethyl)-2-azabicyclo[3.2.1]octan-4-yl)-1H-1,2,3-triazol-4-yl)methyl) amine]	29.1 ± 1.36	26.2 ± 1.22 µg/mL	31.8 ± 2.31	28.7 ± 2.08 µg/mL	3.27 ± 0.42	2.94 ± 0.38 µg/mL									27.7 ± 3.24	24.9 ± 2.92 µg/mL	
CC(c1ccccc1)N1C2CCC(C2)C1c1cn(CC2CCCN2C(=O)OC(C)(C)C)nn1 (stereo not drawn) [Compound 21]	92.6 ± 22	41.8 ± 9.92 µg/mL	90.28 ± 0.69	40.77 ± 0.31 µg/mL	77.6	35 ± 3.92 µg/mL	21 **	[b]				77.6 ± 8.68			> 100	48.8 ± 10.1 µg/mL	

Continued by falling IC50 (Hs294T; read-out: IC50 Hs294T), values first:

IC50 (Hs294T; read-out: IC50 Hs294T) [µM]	IC50 (Hs294T; [2])	IC50 (MIA PaCa-2; [3]) [µM]	IC50 (MIA PaCa-2; [4])	IC50 (NCI-H1581; [5]) [µM]	IC50 (NCI-H1581; [6])	solvability in dimethyl sulfoxide (DMSO) [1]	solvability in DMSO [1]	IC50 (MIA PaCa-2; [10]) [µM]	IC50 (Hs294T; [12]) [µM]	IC50 (NCI-H1581; Homo sapiens, NCI-H1581, 72 h, supplement, read-out: IC50 NCI-H1581 (non-rounded data)) [µM]	IC50 (NCI-H1581; read-out: IC50 NCI-H1581) [µM]	SMILES	SI (Selectivity Index) (NCI-H1581)	IC50 (BALB/3T3 clone A31; [7]) [µM]	IC50 (BALB/3T3 clone A31; [8]) [µM]	IC50 (BALB/3T3 clone A31; [9])	IC50 (BALB/3T3 clone A31; [11]) [µM]
77.3 ± 9.5	49.4 ± 6.07 µg/mL	> 100	> 100 µM	20.9 ± 15.2	13.4 ± 9.71 µg/mL	14 **	[b]	> 100				C[C@@H](c1ccccc1)N1C[C@@H](n2cc(-c3ccc(-c4cn([C@@H]5CN([C@@H](C)c6ccccc6)[C@H]6CC[C@@H]5C6)nn4)cc3)nn2)[C@@H]2CC[C@H]1C2 [Compound 14, 1,4-Bis-(1-((1S,4S,5R)-2-((S)-1-phenylethyl)-2-azabicyclo[3.2.1]octan-4-yl)-1H-1,2,3-triazol-4-yl) benzene]			> 100	> 100 µM	> 100
58.8 ± 4.07	37.6 ± 2.6 µg/mL	111 ± 9.55	71.2 ± 6.1 µg/mL	6.87 ± 1.46	4.39 ± 0.93 µg/mL	15 **	[b]					C[C@@H](c1ccccc1)N1C[C@H](n2cc(-c3ccc(-c4cn([C@H]5CN([C@@H](C)c6ccccc6)[C@H]6CC[C@@H]5C6)nn4)cc3)nn2)[C@@H]2CC[C@H]1C2 [Compound 15, 1,4-Bis-(1-((1S,4R,5R)-2-((S)-1-phenylethyl)-2-azabicyclo[3.2.1]octan-4-yl)-1H-1,2,3-triazol-4-yl) benzene]	9		59.5 ± 11.7	38 ± 7.48 µg/mL	
57 ± 13.6	27.5 ± 6.57 µg/mL	63 ± 7.29	30.4 ± 3.51 µg/mL	6.3	3.01 ± 0.66 µg/mL						6.25 ± 1.37	CC(c1ccccc1)N1CC(n2cc(C3C4CCC(C4)N3C(C)c3ccccc3)nn2)C2CCC1C2 (stereo not drawn) [Compound 20]	6		39.4 ± 4.86	19 ± 2.34 µg/mL	
13.7 ± 2.31	8.28 ± 1.4 µg/mL	44.9 ± 3.69	27.2 ± 2.24 µg/mL	4.88 ± 0.41	2.96 ± 0.25 µg/mL							C[C@@H](c1ccccc1)N1C[C@H](n2cc(COCc3cn([C@H]4CN([C@@H](C)c5ccccc5)[C@H]5CC[C@@H]4C5)nn3)nn2)[C@@H]2CC[C@H]1C2 [Compound 13, (1S,1′S,4R,4′R,5R,5′R)-4,4′-(4,4′-(oxybis(methylene))bis(1H-1,2,3-triazole-4,1-diyl))bis(2-((S)-1-phenylethyl)-2-azabicyclo[3.2.1]octane)]	9	46.1 ± 11.3	46.1	27.9 ± 6.85 µg/mL	
